In US12318434B2, “Alkaline phosphate-based oncology treatments” (Theriva Biologics, Inc., priority 2019, dated 2025):
Entries after “also recorded” stand apart in the source; their conditions may differ.

Tests used:
[1] = system: BALB/c mice inoculated with CT26 murine colorectal cancer cells; assay: First set of experiments: stool consistency and weight change after 5-FU with or without IAP; format: in vivo
Excerpt: (§1) The study conducted included evaluation of the effects of administration of an IAP (“SYN-020” is synonymous with IAP and SYN BIAPII) along with a chemotherapeutic treatment with 5-fluorouracil (5-FU) in a murine model. […] Stool consistency was scored as the following: Score 0=Normal (no diarrhea); Score 2=Loose, formed stools; and Score 4=Diarrhea.
The first set of experiments included three groups of BALB/c mice inoculated with CT26 murine colorectal cancer cells into the right flank: (1) a no-treatment control group of 18 male mice (“untreated”); (2) a group of 18 male mice (“vehicle+5-FU”) that received an intraperitoneal (IP) QD (once daily) dose of 30 mg/kg of 5-FU for 5 consecutive days (days 0-4) and a vehicle was administered PO (orally) BID (twice a day) throughout the study (days −3 to +26); and (3) a group of 18 male mice (“SYN BIAPII+5-FU”) that received an IP QD dose of 30 mg/kg of 5-FU for 5 consecutive days (days 0-4) and an IAP (SYN-020) in a dose of 0.5 mg/kg, administered PO BID throughout the study (days −3 to +26).

[2] = system: BALB/c mice inoculated with CT26 murine colorectal cancer cells; assay: Second set of experiments: mean daily body weight change after 5-FU with or without IAP; format: in vivo; conditions: 5-FU 30 mg/kg IP QD days 0-4
Method: (§2) The second set of experiments included four groups of BALB/c mice inoculated with CT26 murine colorectal cancer cells into the right flank: (1) a vehicle control group of 30 male mice (“vehicle”); (2) a group of 30 male mice that received a daily treatment dose of 100 U/dose, 0.5 mg/kg of SYN BIAP II alone (“SYN BIAP II”); (3) a group of 30 male mice (“vehicle+5-FU”) that received an IP QD dose of 30 mg/kg of 5-FU for 5 consecutive days (days 0-4) and vehicle treatment; and (4) a group of 30 male mice (“SYN BIAPII+5-FU”) that received an IP QD dose of 30 mg/kg of 5-FU for 5 consecutive days (days 0-4) and an IAP (SYN-020) in a dose of 100 U/dose, 0.5 mg/kg, administered PO BID throughout the study (days −3 to +26).
Cumulative differences in body weight change between treatment groups through 50% common group survival (Day (−3)-16) were assessed by calculating the area under the curve (AUC) for each animal using the trapezoidal transformation.

[3] = system: BALB/c mice inoculated with CT26 murine colorectal cancer cells; conditions: for Duration of Diarrhea (score = 4): Days < 4: animal-days with stool score < 4; for Duration of Diarrhea (score = 4): Days = 4: animal-days with stool score = 4 (diarrhea); for Duration of Diarrhea (score = 4): % Days = 4: percentage of total animal-days with diarrhea (score=4)
Excerpt: as §1, §2
Arrows indicate 5-FU administration days. […] The statistical significance of group differences in daily stool scores was assessed on each day by Mann-Whitney rank-sum analysis.
Table 1 below compares the duration of 5-FU-induced diarrhea by calculating the percentage of total animal-days with diarrhea (score=4). Groups were compared by chi-square test.

[4] = 5-FU 30 mg/kg IP QD days 0-4, vehicle or SYN-020 0.5 mg/kg PO BID days -3 to +26

## O=c1[nH]cc(F)c(=O)[nH]1 [vehicle + 5-FU, 5-fluorouracil]
[1]; 5-FU 30 mg/kg IP QD days 0-4, all of the treated animals
  effect of 5-FU administration on stools and weight: caused loose stools/diarrhea, as well as associated weight loss; also recorded: caused loose stools/diarrhea, and associated weight loss
[1]; [4]
  day by which loose stools/diarrhea and associated weight loss recovered: ≤ 9 days
  day on which loose stools/diarrhea and associated weight loss peaked: 6 days
[2]
  day by which animals regained lost weight: ~20 days
  day on which chemotherapy-induced weight loss peaked: 7 days
[2]; Day 7
  chemotherapy-induced weight loss at peak (percent change compared to body weight at Day 0): ~−20%
[3]; 5-FU 30 mg/kg IP QD days 0-4
  day by which incidence of loose stools generally resolved: ≤ 12 days
  day on which incidence of loose stools or diarrhea was first observed: 5 days
[3]
  Duration of Diarrhea (score = 4): Days < 4: 245
  Duration of Diarrhea (score = 4): Days = 4: 43
  Duration of Diarrhea (score = 4): % Days = 4: 14.93%
[3]; mouse, in vivo
  animal-days with diarrhea compared to untreated animals: statistically significant cumulative increase

B1: SYN BIAPII: intestinal alkaline phosphatase; BIAP II with stop codon and no leader sequence (SYN-020) (SEQ ID NO: 41) (protein)
chain: LIPAEEENPAFWNRQAAQALDVAKKLQPIQTAAKNVILFLGDGMGVPTVTATRILKGQMNGKLGPETPLAMDQFPYVALSKTYNVDRQVPDSAGTATAYLCGVKGNYRTIGVSAAARYNQCNTTRGNEVTSVINRAKKAGKAVGVVTTTRVQHASPAGAYAHTVNRNWYSDADLPADAQKNGCQDIAAQLVYNMDIDVILGGGRMYMFPEGTPDPEYPDDASVNGVRKDKQNLVQEWQAKHQGAQYVWNRTALLQAADDSSVTHLMGLFEPADMKYNVQQDHTKDPTLAEMTEAALQVLSRNPRGFYLFVEGGRIDHGHHDGKAYMALTEAIMFDNAIAKANELTSELDTLILVTADHSHVFSFGGYTLRGTSIFGLAPGKALDSKSYTSILYGNGPGYALGGGSRPDVNGSTSEEPSYRQQAAVPLASETHGGEDVAVFARGPQAHLVHGVQEETFVAHIMAFAGCVEPYTDCNLPAPATATSIPD
modifications: Synthetic polymer.
[1]; SYN-020 0.5 mg/kg PO BID plus 5-FU, compared with vehicle+5-FU, p<0.03
  recovery from the loose stools/diarrhea symptoms and associated weight loss: significantly faster recovery
[3]
  Duration of Diarrhea (score = 4): Days < 4: 299
  Duration of Diarrhea (score = 4): Days = 4: 1
  Duration of Diarrhea (score = 4): % Days = 4: 0.33%
[3]; mouse, in vivo, 0.5 mg/kg
  stool consistency throughout the course of the analysis: normal stool consistency
